“And” between values parts separate entries of the source, which are not always exact repeats. Identical values can stand only once. Like-named read-outs stand apart in the source and are kept apart here.
Key:
[1] = Fluorescent AGEs formation in a BSA-fructose/glucose system; type: biochemical; settings: for IC50: read-out: BSA-glycation IC50
How it was run: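 Fluorescent AGE inhibition was measured in triplicate, correcting sample and control fluorescence for BSA-free blanks. Glycation used BSA incubated with D-fructose and D-glucose, with samples dissolved in DMSO:water (1:4).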

[2] = tested on: CML expression in MGO-induced HDFs; experiment: Glycation cell assay: CML expression in MGO-induced HDFs (IF); type: cell-based, human; settings: positive compound
Procedure: Based on previously reported methods ([25]), human primary dermal fibroblasts (HDFs) were induced by MGO to establish a cell model of high CML expression.
HDFs were cultured in high-glucose DMEM supplemented with 10% FBS containing 100 µg/ml of PS at 37°C in a humidified 5% CO2 incubator. Cell viability was assessed using the CCK-8 kit. HDFs were cultured in 12-well plates to approximately 70% confluence and then treated with 0.5 mmol/L of MGO for 48 h to induce glycation and the formation of CML. Subsequently, different concentrations of samples were added and co-cultured with MGO for an additional 48 h. Cells were then washed once with PBS and fixed in polyformaldehyde overnight at 4°C. Triton-X-100 solution (0.1%) was assigned to fixed cells for 5 min at room temperature to improve cell membrane permeability. After washing twice with PBS, cells were blocked in 1% BSA for 1 h, followed by incubation with the primary CML antibody (1:50) overnight at 4°C. […] Counterstaining was performed by adopting anti-fluorescence quenching and sealing liquid containing DAPI, followed by visualisation and fluorescence image capture using a microscope (Leica, Germany). ImageJ software was used to quantify CML expression from different images randomly selected in each group.

[3] = tested on: type III collagen in HDFs; experiment: Collagen type III immunofluorescence staining in HDFs; type: cell-based, human; settings: for COL III staining: VC positive control, NT = 100%, replicates and AVE, listed as VC
Procedure: (§1) HDFs were cultured in DMEM with 10% (v/v) FBS and 1% PS at 37°C in a humidified 5% CO2 incubator. Cells were subcultured using pancreatin solution after reaching confluence. All experiments were performed between the third and eighth passages.
(§2) The synthesis of collagen types I and III was detected using IF ([26]) and ELISA ([27]). HDFs were digested and seeded in a 24-well culture plate on slides at a density of 50,000 cells/well in a complete medium. After reaching 80% confluency, cells were starved with the medium in the absence of serum for 16 h. Cells were then treated with positive controls or active samples (prepared in medium without serum) for an additional 48 h. For analysis and visualisation of types I and III collagens, the supernatants and remaining cell slides were both collected and analysed using ELISA kits and the IF staining method, respectively.
(§3) Collected supernatants were centrifuged at 10,000 rpm for 10 min and used for types I and III collagen ELISA, according to the manufacturer’s protocol. The remaining cell slides were washed once with PBS and fixed in polyformaldehyde overnight at 4°C. Subsequently, the slides were treated with 0.5% Triton-X100 for 5 min. After washing, cells were blocked with 1% BSA at room temperature for 1 h. Cells were then incubated with types I and type III collagen primary antibodies (1:100) for 2 h at room temperature. […] Finally, the nuclei were counter-stained with DAPI, and relevant fluorescent images were captured using a microscope. ImageJ software was used to quantify collagen expression from different images randomly selected in each group.

[4] = tested on: secreted type III collagen of HDFs; experiment: Extracellular collagen type III ELISA on HDFs; type: cell-based, human; settings: VC positive control, replicates and AVE, listed as VC
Procedure: as §1, §2
Collected supernatants were centrifuged at 10,000 rpm for 10 min and used for types I and III collagen ELISA, according to the manufacturer’s protocol. The remaining cell slides were washed once with PBS and fixed in polyformaldehyde overnight at 4°C. Subsequently, the slides were treated with 0.5% Triton-X100 for 5 min. After washing, cells were blocked with 1% BSA at room temperature for 1 h. […] ImageJ software was used to quantify collagen expression from different images randomly selected in each group.

type I collagen in HDFs = experiment: Collagen type I immunofluorescence staining in HDFs; type: cell-based, human; settings: for COL I staining: VC positive control, NT = 100%, replicates and AVE, listed as VC
Procedure: as §1, §2, §3

[5] = tested on: secreted type I collagen of HDFs; experiment: Extracellular collagen type I ELISA on HDFs; type: cell-based, human; settings: for COL I (ELISA): VC positive control, replicates and AVE, listed as VC
Procedure: as §1, §2, §3

Row | SMILES | fluorescent AGEs IC50 [1] [µg/mL] | inhibition of fluorescent AGEs formation (BSA-抗糖化), single replicate ([1]; 15.625 ug/ml) | IC50 ([1]; lower part of sheet (compound series)) [µM] | IC50 ([1]; mean ± SD, n = 3) [µM] | BSA-glycation IC50 ([1]; upper part of sheet (extract series)) [µg/mL] | IC50 ([1]; upper part of sheet (extract series), positive control also given in μM) [µM] | inhibition of glycation (CML) [2] [%] | collagen type III expression (IF) ([3]; VC 200 μg/ml, positive control) | COL III staining [3] | COL III staining ([3]; mean) [%] | COL III (ELISA) [4] | COL III (ELISA) ([4]; mean) [ng/mL] | collagen type I expression (IF) (type I collagen in HDFs; VC 200 μg/ml, positive control) | COL I staining (type I collagen in HDFs) | COL I staining (type I collagen in HDFs; mean) [%] | COL I (ELISA) [5] | COL I (ELISA) ([5]; mean) [pg/mL] | increase of secreted collagen type I levels ([5]; VC, 48 h, culture medium) [%]
1 | Cl.N=C(N)NN [AG, Aminoguanidine hydrochloride, reference compound] | 177.3 ± 11.6 | -1.16% and 3.22% | 1620 ± 111 | 1600 | 178.47 ± 12.27 | 1620 ± 111 | 88.11 | – | – | – | – | – | – | – | – | – | – | –
2 | O=C1O[C@H]([C@@H](O)CO)C(O)=C1O [vitamin C] | – | – | – | – | – | – | – | 125.90 % of control | 118.22% and 137.59% and 116.52% and 131.28% | 125.90 | 2.70 ng/mL and 2.97 ng/mL and 3.15 ng/mL | 2.94 | 190.20 % of control | 173.88% and 170.79% and 188.58% and 168.29% and 249.47% | 190.20 | 646.77 pg/mL and 611.41 pg/mL and 656.93 pg/mL | 638.37 | 21.94

Source: publication PMC10064984, “Anti-cyclooxygenase, anti-glycation, and anti-skin aging effect of Dendrobium officinale flowers’ aqueous extract and its phytochemical validation in aging” (Frontiers in Immunology, 2023)
